This note sets out measurements from PubChem BioAssay (NCI).

Some test systems named below: 786-0 renal; A549 NSCLC; ACHN renal; BT-549 breast; EKVX NSCLC; HCC-2998 colon; HCT-116 colon; HCT-15 colon; KM12 colon; MDA-N; NCI-H23 lung; OVCAR-4 ovarian; OVCAR-5 ovarian; SF-295 CNS; SN12C renal; SNB-19 CNS; U251 CNS.
Common to all, as to experiment: NCI tumour cell line growth inhibition, 48 h

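Assay format: 96-well plates, 48-hour exposure. TGI marks complete inhibition of growth.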 Where only a bound is given, the exact number is not on record here.

With `O=C(/C=C/c1ccc([N+](=O)[O-])cc1)N1CCN(CCOC(c2ccc(F)cc2)c2ccc(F)cc2)CC1`, the TGI with 786-0 renal, in the assay on A549 NSCLC, in the assay on ACHN renal, in the assay with BT-549 breast, with EKVX NSCLC and in the assay with HCC-2998 colon was over 100 µM in each case. Further, the TGI with HCT-116 colon, in the assay on HCT-15 colon, with KM12 colon, with MDA-N, in the assay with NCI-H23 lung and in the assay with OVCAR-4 ovarian was over 100 µM in each case. The TGI with OVCAR-5 ovarian, with SF-295 CNS, in the assay on SN12C renal, in the assay with SNB-19 CNS and with U251 CNS was over 100 µM each time.
For `COC(=O)CN(CC(=O)NCCNC(=O)OC(C)(C)C)C1CCCCC1N(CC(=O)OC)CC(=O)OC` (configuration not stated), the TGI with 786-0 renal, with A549 NSCLC, in the assay with ACHN renal, with BT-549 breast, in the assay with EKVX NSCLC and with HCC-2998 colon was over 100 µM in each case. The TGI in the assay on HCT-116 colon, with HCT-15 colon, in the assay on KM12 colon, with MDA-N, in the assay with NCI-H23 lung and in the assay on OVCAR-5 ovarian was over 100 µM in each case. Further, the TGI in the assay on SF-295 CNS, in the assay with SN12C renal, in the assay with SNB-19 CNS and with U251 CNS was over 100 µM each time.
As to `O=C(NC(CS)C(=O)O)c1c2ccccc2nc2ccccc12` (configuration not stated), the TGI in the assay on 786-0 renal was over 100 µM; in the assay on A549 NSCLC it was over 100 µM; in the assay on ACHN renal, over 100 µM; in the assay with BT-549 breast, 58.5 µM; in the assay on EKVX NSCLC, over 100 µM; in the assay on HCC-2998 colon it was over 100 µM. For the same compound, the TGI with HCT-116 colon was over 100 µM; in the assay on HCT-15 colon, over 100 µM; in the assay with KM12 colon, over 100 µM; in the assay on MDA-N it was over 100 µM; in the assay on NCI-H23 lung, 68.6 µM; in the assay on OVCAR-4 ovarian, over 100 µM. The TGI in the assay on OVCAR-5 ovarian, with SF-295 CNS, in the assay on SN12C renal, in the assay on SNB-19 CNS and in the assay with U251 CNS was over 100 µM in each case.
With `O=S(=O)(CC(Cl)c1ccccc1)c1nc2ccccc2s1` (configuration not stated), the TGI stood at 19.4 µM in the assay on 786-0 renal; 43.1 µM with A549 NSCLC; 29.1 µM with ACHN renal; 8.72 µM with BT-549 breast; 35.4 µM with EKVX NSCLC; 31.8 µM in the assay on HCC-2998 colon. Besides, the TGI in the assay with HCT-116 colon turned out to be 23.6 µM; in the assay on HCT-15 colon, 21.9 µM; in the assay with KM12 colon, 32 µM; in the assay with MDA-N, 18.1 µM; in the assay with NCI-H23 lung, 25.5 µM; in the assay on OVCAR-4 ovarian, 51.1 µM. Moreover, the TGI stood at 28.8 µM in the assay with OVCAR-5 ovarian; 32.6 µM with SF-295 CNS; 30.3 µM in the assay on SN12C renal; 32.3 µM in the assay with SNB-19 CNS; 25.9 µM in the assay on U251 CNS.
For the compound `CCC1C(NC(=O)OC)C(=O)N1[C@@H](C)c1ccccc1` (some centres not stated), the TGI in the assay on 786-0 renal, with ACHN renal, in the assay with BT-549 breast, with EKVX NSCLC, with HCC-2998 colon and with HCT-116 colon was over 100 µM throughout. Besides, the TGI with HCT-15 colon, in the assay on KM12 colon, in the assay with MDA-N, with NCI-H23 lung, in the assay with OVCAR-4 ovarian and in the assay on OVCAR-5 ovarian was over 100 µM throughout. For the same compound, the TGI in the assay with SF-295 CNS, with SN12C renal, in the assay with SNB-19 CNS and in the assay with U251 CNS was over 100 µM throughout.
With `Cc1ccc(S(=O)(=O)C2=Cc3ccccc3C2(O)c2ccccc2)cc1` (configuration not stated), the TGI was over 10 µM with 786-0 renal; over 100 µM in the assay on A549 NSCLC; over 100 µM with ACHN renal; 63.1 µM with BT-549 breast; 76 µM in the assay with EKVX NSCLC; 91.3 µM in the assay on HCC-2998 colon. The TGI is over 100 µM in the assay with HCT-116 colon; over 100 µM with HCT-15 colon; 37.6 µM with KM12 colon; 48.2 µM in the assay with MDA-N; over 100 µM in the assay with NCI-H23 lung; over 100 µM with OVCAR-5 ovarian. The TGI in the assay on SF-295 CNS is 76.9 µM; in the assay on SN12C renal it was 34.3 µM; in the assay on SNB-19 CNS, over 100 µM; with U251 CNS, 87.7 µM.
As to `Cc1cc(C)c(/C=C2\C(=O)Nc3ccccc32)[nH]1`, the TGI in the assay on 786-0 renal, in the assay on A549 NSCLC, with ACHN renal, with BT-549 breast, with EKVX NSCLC and with HCC-2998 colon was over 100 µM throughout. Further, the TGI with HCT-116 colon, in the assay on HCT-15 colon, with MDA-N, with NCI-H23 lung, in the assay on OVCAR-4 ovarian and with OVCAR-5 ovarian was over 100 µM throughout. The TGI in the assay with SF-295 CNS, with SN12C renal, in the assay on SNB-19 CNS and in the assay with U251 CNS was over 100 µM each time.
With `COc1cc(C2c3cc4c(cc3OC(NNC(N)=S)C2C)OCO4)cc(OC)c1OC` (configuration not stated), the TGI is over 100 µM in the assay on 786-0 renal; over 100 µM in the assay on A549 NSCLC; over 100 µM in the assay with ACHN renal; 62.3 µM in the assay with BT-549 breast; over 100 µM with EKVX NSCLC; 18.7 µM with HCC-2998 colon. In addition, the TGI with HCT-116 colon was over 80.7 µM; in the assay on HCT-15 colon it was over 100 µM; with KM12 colon, over 35.6 µM; with MDA-N it was over 100 µM; in the assay with OVCAR-4 ovarian it was over 100 µM; in the assay with OVCAR-5 ovarian, over 100 µM. The TGI was 0.884 µM with SF-295 CNS, over 100 µM in the assay with SN12C renal, over 100 µM in the assay on SNB-19 CNS and over 42.9 µM in the assay on U251 CNS.
As to `Cc1cc(C)n(-c2nc(-n3nc(C)cc3C)nc(-n3nc(C)cc3C)n2)n1`, the TGI in the assay on 786-0 renal, with A549 NSCLC, with ACHN renal, in the assay on BT-549 breast, in the assay on EKVX NSCLC and with HCC-2998 colon was over 100 µM in each case. The TGI in the assay on HCT-116 colon, in the assay on HCT-15 colon, in the assay with KM12 colon, in the assay on MDA-N, in the assay with NCI-H23 lung and in the assay on OVCAR-4 ovarian was over 100 µM each time. Moreover, the TGI in the assay with OVCAR-5 ovarian, in the assay on SF-295 CNS, in the assay on SN12C renal and with SNB-19 CNS was over 100 µM in each case.
